How the values were obtained:
Assay type in all cases: in vivo, human
multiple sclerosis [1] = assay: Timed 25-foot walk test; details: between-group difference p=0.02
Source text: (§1) Patients also underwent mammograms before and after the study.
Another clinical disability measure with treatment effects was the timed 25-foot walk test. This test measures how many seconds it takes to walk 25 feet, with higher scores indicating worse disability. […] This beneficial effect of estriol treatment on 25 foot walking times is consistent with the beneficial effect of estriol treatment on EDSS scores since the latter is weighted toward being an indicator of ambulation.

multiple sclerosis [2] = assay: Expanded Disability Status Scale (EDSS)
Source text: as §1
The Expanded Disability Status Scale (EDSS) is a standard composite disability score used in MS trials. Higher scores indicate worse disability. This composite covers a variety of disabilities (including ambulation, vision, cognition, coordination, etc.), but scoring is not linear, and the composite score is understood to be principally an indicator of the level of disability in ambulation.

[3] = Safety and tolerability in randomized, double-blind, placebo-controlled clinical trial (gynecological outcomes, mammograms)
Source text: as §1
Baseline characteristics were similar in both patient groups.

multiple sclerosis [4] = assay: Brain MRI gadolinium enhancing lesions; details: at month 12 compared to month 0 baseline, p=0.14
Source text: as §1
Brain MRI is used extensively in MS as a surrogate marker for clinical effects. Brain white matter gadolinium enhancing lesions are a biomarker for relapses.

multiple sclerosis [5] = assay: Paced Auditory Serial Addition Test (PASAT) cognitive disability assessment; details: month 12 to month 24
Source text: as §1
Next it was shown that the improvement in PASAT cognitive test scores was sustained when subjects were followed for the entire 24 month period, p=0.02 (FIG. 3).

[6] = 24-month treatment, Copaxone with estriol or placebo

With “glatiramer acetate [Copaxone® plus placebo]” the “Change of walk time in timed 25-foot walk test” value (multiple sclerosis [1]) was “significantly increased”, the “Change in EDSS scores” value (multiple sclerosis [2]; 24 months (FIG. 4)) was “no change” and the “EDSS scores over 24 months, slope” value (multiple sclerosis [2]; FIG. 4, p=0.06 estriol group, p=0.90 placebo group) was −0.01. The “Abnormal proliferation in uterine endometrial biopsies” value [3, 6] was “no”, the “Breast - Fibrocystic breast disease on clinical exam” value [3, 6] was 4 subjects and the “Uterine endometrial biopsies (exams)” value [3, 6] was 10 exams. For the same substance, the “Uterine endometrial thickness > 8 mm on ultrasound (subjects)” value [3, 6] was 27 subjects, the Mammograms ([3]; before and after the study) was “No breast” and the “Uterine fibroids on ultrasound” value ([3]; women with MS, 24-month treatment, Copaxone 20 mg/day with oral estriol 8 mg/day or placebo, norethindrone 0.7 mg/day for 14 days every three months) was 8 subjects. The “Reduction in number of subjects with brain MRI scans positive for enhancing lesions” value (multiple sclerosis [4]) was 22% and the “PASAT scores after 12 months to end of study” value (multiple sclerosis [5]) was “began to show improved PASAT scores”.
